Measured values from US20140243227A1, “CULTURE MEDIA FOR STEM CELLS” (Koninklijke Nederlandse Akademie van Wetenschappen, priority 2011, published 2014).
Like-named read-outs stand apart in the source and are kept apart here.

Key:
human colon crypts = assay: Screening of reagents for optimization of human intestinal organoids culture (plating efficiency); format: cell-based
liver organoids = assay: Liver organoid expansion with PGE2 or arachidonic acid; format: cell-based, human; details: for Number and size of liver organoids versus basal medium alone: PGE2 50 nM or AA 10 ug/ml
[1] = system: colon and liver organoids; assay: GSK3 inhibitor as Wnt replacement in organoid culture media; format: cell-based; details: replacement for Wnt
[2] = system: human intestinal organoids; assay: Differentiation and proliferation of human intestinal organoids; format: cell-based; details: human organoids after withdrawal of Wnt
human colon organoids = assay: Long-term culture of human colon organoids (culture period, passages); format: cell-based; details: nicotinamide 10 mM, WENR + gastrin
[3] = Second screening (WENR + gastrin + Nicotinamide)

Molecule	Activity (plating efficiency compared with control after 4 days culture) (human colon crypts; [3])	Activity (plating efficiency compared with control after 4 days culture) (human colon crypts; First screening (WENR))	other results
Nc1ncn([C@@H]2O[C@H](CO)[C@@H](O)[C@H]2O)c(=O)n1 [5 Azacytidin]	1− (1− = 0-50%)		
CCCCC/C=C\C/C=C\C/C=C\C/C=C\CCCC(=O)O [AA, Arachidonic acid]			Number and size of liver organoids versus basal medium alone (liver organoids): greater number of larger organoids
COc1cc2nc(N3CCCN(C)CC3)nc(NC3CCN(Cc4ccccc4)CC3)c2cc1OC [BIX01294]	1− (1− = 0-50%)		
Cc1c[nH]c(-c2cnc(NCCNc3ccc(C#N)cn3)nc2-c2ccc(Cl)cc2Cl)n1 [CHIR99021]			Wnt agonist activity in the culture media [1]: effective Wnt agonist
C[C@H](NC(=O)Cc1cc(F)cc(F)c1)C(=O)N[C@H](C(=O)OC(C)(C)C)c1ccccc1 [DAPT]			Maximal concentration efficiency (liver organoid cultures; titration, hepatocyte marker expression): 10 µM
c1cc(-c2cnn3cc(-c4ccc(OCCN5CCCCC5)cc4)cnc23)ccn1 [Dorsomorphin]	0		
C[C@]12CCC(=O)C=C1CC[C@@H]1[C@@H]2[C@@H](O)C[C@@]2(C)[C@H]1CC[C@]2(O)C(=O)CO [Hydrocortison]		0	
O=C1O[C@H]([C@@H](O)CO)C(O)=C1O [L-Ascorbic acid]		0	
NC(=O)c1cccnc1 [Nicotinamide]		3+ (3+ = >100% increase)	Goblet and enteroendocrine cell differentiation [2]: strongly inhibited this differentiation; Prolongation of culture period (human colon organoids): essential for prolongation of culture period beyond the initial 7 days
COc1cccc(-c2cc(=O)c3ccccc3o2)c1N [PD98059]	1− (1− = 0-50%)		
CCCCC[C@H](O)/C=C/[C@H]1[C@H](O)CC(=O)[C@@H]1C/C=C\CCCC(=O)O [PGE2, prostaglandin E2]		1+ (1+ = <50% increase)	Culturing time without growth reduction (liver organoids; 5 fold expansion per week, 5 weeks without PGE2): at least 8 weeks; Number and size of liver organoids versus basal medium alone (liver organoids): greater number of larger organoids
O=C(O)/C=C(/CCc1ccc(Cl)cc1)c1ccccc1 [PS48]	0		
Cc1ccc(C(=O)Cn2c3c(sc2=N)CCCC3)cc1 [Pifithrin-α]	0		
Cc1nc2sccn2c(=O)c1CCN1CCC(=C(c2ccccc2)c2ccc(F)cc2)CC1 [R 59022]			Result: CYP3AII (liver organoid cultures): +
Oc1ccc(-c2nc(-c3ccc(F)cc3)c(-c3ccncc3)[nH]2)cc1 [SB-202190, 4-[4-(4-Fluorophenyl)-5-(4-pyridinyl)-1H-imidazol-2-yl]phenol]			Goblet and enteroendocrine cell differentiation [2]: strongly inhibited this differentiation
Oc1c2ccccc2c2c3c(cccc13)N=N2 [SP600125]	0		
CC(/C=C/C(=O)NO)=C\[C@@H](C)C(=O)c1ccc(N(C)C)cc1 [TSA]			Result: CYP3AII (liver organoid cultures): −
O.O.O.O=C(O)c1ncccc1O.O=C(O)c1ncccc1O.[O]=[V] [VO-OHpic trihydrate]	3− (3− = >100% decrease)		
C[C@@H](N)[C@H]1CC[C@H](C(=O)Nc2ccncc2)CC1.Cl.Cl.O [Y27632, R-(+)-trans-4-(1-aminoethyl)-N-(4-Pyridyl)cyclohexanecarboxamide dihydrochloride monohydrate]			Activity (plating efficiency compared with control after 4 days culture) (human colon crypts): 1+ (key: 0 = no change; 1+ = <50% increase; 2+ = 50-100% increase; 3+ = >100% increase; 1− = 0-50%; 2− = 50-100% decrease; 3− = >100% decrease); Organoid morphology note in Activity column (human colon crypts): cystic
Cholera Toxin			Activity (plating efficiency compared with control after 4 days culture) (human colon crypts): 1+ (key: 0 = no change; 1+ = <50% increase; 2+ = 50-100% increase; 3+ = >100% increase; 1− = 0-50%; 2− = 50-100% decrease; 3− = >100% decrease)
Exendin4: GLP1 analog; a 39 amino acid peptide		0	
FGF2: growth factor (Peprotech)		0	
LIF: growth factor (Millipore)		0	
